Values quoted from earlier work in patent US8455540B2, “Gossypol and apogossypol derivatives, preparation thereof and uses thereof” (Universite du Maine (Le Mans), priority 2007, dated 2013).

What was measured:
[1] = system: various types of cancers; conditions: compared with gossypol (apogossypol = deformylated gossypol)
[2] = system: proteins of the Bcl-2 family; conditions: compared with gossypol (apogossypol = deformylated gossypol)

## Cc1cc2c(C(C)C)c(O)c(O)cc2c(O)c1-c1c(C)cc2c(C(C)C)c(O)c(O)cc2c1O [apogossypol]
[1]
  activity on various types of cancers: fully retains its activity
[2]
  activity on proteins of the Bcl-2 family: fully retains its activity
